Legend:
[1] = test system: HepG2 (hepatocellular cancer) cells; test: MTT assay, HepG2 cells; type: cell-based, human; conditions: MTT assay, 48 h incubation; read-out: IC50 (mean ± SD), HepG2, MTT
Description: (§1) The cell proliferations of ligand precursors and organotin(IV) compounds were evaluated with the aid of MTT (3-(4,5-dimethylthiazol-2-yl)-2,5-12 diphenyltetrazolium bromide) and CV (crystal violet) assays toward prostate (PC-3), colon (HT-29), breast (MCF-7) and hepatic (HepG2) cancer cell lines, and normal mouse embryonic fibroblast cells (NIH 3T3). The cells were cultivated in T75 flasks containing 10 mL of complete medium and kept at 37 °C and 5% CO2 […]. The nutrient medium was RPMI-1640 (PAA Laboratories) supplemented with 10% foetal bovine serum, L-glutamine, and penicillin/streptomycin (Sigma). Afterward, 5.000 cells of PC-3 and MCF-7 and 1.500 cells of HT-29 and HepG2 were transferred into 96 well-plates and used for MTT and CV assays. For microscopy investigations as well as FACS measurements (except for ROS/RNS measurements), MCF-7 cells were seeded overnight in 6-well plates (150,000 cells/well) in […] of complete medium. […] In all assays, control cells were untreated MCF-7 cells incubated for the same time period as treated cells and treated with appropriate reagents in various assays. BD FACS Aria III was used for flow cytometry experiments and results were analysed using BD FACSDiva software (BD Biosciences, Heidelberg, Germany) and Cyflogic (V 1.2.1, CyFlo Ltd., Turku, Finland). A fluorescence microscope Invitrogen EVOS FL 2 Auto 2 Cell Imaging System was used for visualization of the cells as well as for detection of fluorescence in the cells.
(§2) Ligands HL1‒HL3, organotin(IV) compounds, and cisplatin were investigated in 9 different concentrations (100, 50, 10, 5, 1, 0.5, 0.1, 0.05, 0.01 μM). Using the complete medium, each stock solution of the test compounds (20 mM in DMSO) was diluted to obtain the working solution. The final concentration of DMSO never overstepped 0.5%, which is non-toxic to the cells. Three technical replicates were performed for each concentration. The treated cells were incubated for 48 h at 37 °C under 5% CO2 and the viability of the cells was determined using MTT and CV assays according to the literature procedure. The IC50 values, defined as 50% inhibitory concentration, were calculated with a four-parameter logistic function and presented in a mean. All experiments were performed in triplicate.

MCF-7 cells [2] = test: ROS/RNS (DHR) and NO (DAF-FM) production, flow cytometry; type: cell-based, human; conditions: 48 h, IC50 concentration
Text: Reactive oxygen (ROS) and nitrogen species (RNS) are natural by-products of the aerobic metabolism in cells. At physiological concentrations, they play a significant role in regulating numerous cellular processes. On the other hand, it is well-known that the reactive oxygen (O2^•−, H2O2, OH^•−) and nitrogen species (NO) are highly reactive molecules that easily damage cells by interacting with biomolecules such as proteins, lipids, carbohydrates, and nucleic acids, thus triggering different pathological conditions (inflammation, cardiovascular disorders, neurodegenerative diseases, and the formation of cancer cells).
For the investigation of ROS/RNS production the cells from the T25 flask were collected by applying 1 mL of trypsin and diluted with 9 mL of complete medium. Using 1 mL of DHR (dihydrorhodamine) working solution the cells were stained and incubated at 37 °C and 5% CO2 for 10 min. The staining process was stopped by applying 4 mL of complete medium, then the solution was centrifuged for 3 min at 1000 rpm and the supernatant was discarded. The cells were resuspended in complete medium (1 mL/well) and seeded in a 6 well plate. […] The prepared cells were analysed by flow cytometry.
The cells were washed with PBS and then treated with 1 mL of DAF-FM (4-amino-5-methylamino-2,7′-diflurofluorescin diacetate) working solution. […] The prepared cells were analysed by flow cytometry.

[3] = test system: NIH3T3 (normal mouse embryonic fibroblast) cells; test: CV (crystal violet) assay, NIH3T3 cells; type: cell-based; conditions: CV assay, 48 h incubation, normal cells; read-out: IC50 (mean ± SD), NIH3T3, CV
Description: as §1, §2

[4] = test system: MCF-7 (breast cancer) cells; test: MTT assay, MCF-7 cells; type: cell-based, human; conditions: for IC50: MTT assay, 48 h incubation, read-out: IC50 (mean ± SD), MCF-7, MTT
Description: as §1, §2

[5] = test system: HepG2 (hepatocellular cancer) cells; test: CV (crystal violet) assay, HepG2 cells; type: cell-based, human; conditions: CV assay, 48 h incubation; read-out: IC50 (mean ± SD), HepG2, CV
Description: as §1, §2

[6] = test system: NIH3T3 (normal mouse embryonic fibroblast) cells; test: MTT assay, NIH3T3 cells; type: cell-based; conditions: MTT assay, 48 h incubation, normal cells; read-out: IC50 (mean ± SD), NIH3T3, MTT
Description: as §1, §2

MCF-7 cells [7] = test: Cell cycle analysis (DAPI, flow cytometry); type: cell-based, human; conditions: 48 h, IC50 dose
Description: The mode of action was further investigated by analysing the effects of Ph3SnL1 and cisplatin on the cell cycle phase distribution of MCF-7 cells. This was evaluated by cytofluorimetric analysis using DAPI staining. […] While cisplatin acts on DNA (among other effects), the lipophilic cationic nature of triphenyltin(IV) may guide it preferentially to mitochondria to intervene with cells’ energy metabolism.
The Falcon tubes were centrifuged for 3 min at 1000 rpm and the supernatant was discarded. Afterwards, the cells were washed with 1 mL of PBS, centrifuged for 3 min at 1000 rpm and the supernatant was discarded. The cells were resuspended in 300 μL of ice-cold PBS buffer and then fixed by adding them dropwise to 700 μL of ice-cold absolute ethanol. The cells were stored for 24 h at 4 °C, then centrifuged for 3 min at 1000 rpm, washed with PBS and stained with 1 mL of DAPI (4′,6-diamidino-2-phenylindole) working solution [39]. The prepared cells were incubated at room temperature for 10 min and analysed by flow cytometry.

[8] = test system: HT-29 (human colorectal adenocarcinoma) cells; test: CV (crystal violet) assay, HT-29 cells; type: cell-based; conditions: CV assay, 48 h incubation; read-out: IC50 (mean ± SD), HT-29, CV
Description: as §1, §2

[9] = test system: PC-3 (human prostate cancer) cells; test: MTT assay, PC-3 cells; type: cell-based; conditions: MTT assay, 48 h incubation; read-out: IC50 (mean ± SD), PC-3, MTT
Description: as §1, §2

Row | Compound | IC50 [1] [nM] | production of ROS/RNS species (MCF-7 cells [2]) | IC50 [3] [µM] | IC50 [4] [µM] | fold higher activity compared to cisplatin against MCF-7 ([4]; Table 1 IC50 values, 48 h) | IC50 [5] [nM] | IC50 [6] [µM] | cell cycle phase distribution (MCF-7 cells [7]) | IC50 [8] [µM] | IC50 [9] [µM] | cell population in G1/G0 phase (MCF-7 cells [7]) | cell population in S and G2/M phases (MCF-7 cells [7]) | population of cells in the sub-G1 phase (MCF-7 cells [7])
1 | O=C(CCc1nc(-c2ccccc2)c(-c2ccccc2)o1)[O][Sn]([c]1ccccc1)([c]1ccccc1)[c]1ccccc1 [Ph3SnL1, (3-(4,5-Diphenyloxazol-2-yl)propanoato)triphenyltin(IV)] | 146 ± 28 | does not affect the production of ROS and RNS | 2.66 ± 0.52 | 0.132 ± 0.021 | up to 120 fold | 366 ± 51 | 2.17 ± 0.53 | does not lead to any significant changes in the cell cycle distribution | 0.465 ± 0.046 | 0.181 ± 0.027 |  |  | 
2 | N.N.[Cl][Pt][Cl] [cisplatin, reference compound] | 3470 ± 460 | elevates the production of both reactive oxygen and nitrogen species | 14.2 ± 1.95 | 15.2 ± 1.04 |  | 3650 ± 350 | 8.81 ± 0.51 |  | 16 ± 0.95 | 14.3 ± 0.26 | considerable decrease | increase | did not lead to any observable changes
